From PMC3006138, “Fexinidazole – A New Oral Nitroimidazole Drug Candidate Entering Clinical Development for the Treatment of Sleeping Sickness” (PLoS Neglected Tropical Diseases, 2010)

What was measured:
[1] = tested on: hepatocytes from African American donors; experiment: Hepatocyte intrinsic clearance and metabolite profile; assay type: in vitro ADME, human; conditions: fexinidazole 10 µM
Description: (§1) Fexinidazole was incubated with cryopreserved hepatocytes from male CD-1 mice, male Sprague Dawley rats, male beagle dogs, male cynomolgus monkeys, and from pooled white or African-American human donor samples (purchased commercially), at concentrations of 1 µM and 10 µM. […] The incubated samples were analyzed by LC-MS after extraction into acetonitrile.
Fexinidazole sulfoxide, lot 1106-I-0170, 99.3% purity, and fexinidazole sulfone, lot 1106-I-0171, 99.9% purity, were provided by the Sponsor.
Cryopreserved hepatocytes of five single donors, lots EHI, REL, KSE […]
ZIJ and MRS, were purchased from In Vitro Technologies Inc (Baltimore, Maryland, USA).
The certificates of analysis are reported in Appendix 1.
(§2) Reagents and solvents were of analytical grade and obtained from Sigma-Aldrich (St. Louis, […]
7.5. In Vitro Incubations
(§3) On the day of the experiment a 10 mM stock solution of fexinidazole in DMSO was prepared and, within 3 hours, aliquots of this freshly prepared solution, after suitable dilution, were added to the incubation matrix, to reach fexinidazole final concentrations of 1 and 10 µM. The final percentage of DMSO was 0.01% in the incubation samples for the […]
The cryopreserved hepatocytes were thawed according to the supplier’s procedure and the number of viable cells was determined using the Trypan Blue exclusion method. Viabilities were 92% for lot EHI, 89% for lot REL, 82% for lot KSE, 86% for lot ZIJ and 86% for lot MRS in the intrinsic clearance study. In the metabolite profile study viabilities were 91% for lot EHI, 90% for lot REL, 85% for lot KSE, 84% for lot ZIJ and 87% for lot MRS.
Afterwards, the same amount of viable cells for each donor were pooled and used for the incubations of fexinidazole.
7.5.1. Intrinsic Clearance Study […]
(§4) µM with pooled human hepatocytes (1 million cells/mL) in a final incubation volume of 1 mL Leibovitz L-15 medium, at 37°C. Incubations were performed in duplicate in a 48-well plate under shaking. Sampling was performed using an automatic liquid handling system (Multiprobe II EX, Packard). At 0, 1, 5, 10, 15, 20, 30, 60 and 120 minutes, 50 µL aliquots of the incubates were taken, then 80 µL of ice-cold acetonitrile and 20 µL of 1 µM warfarin in acetonitrile (internal standard) were added, and samples centrifuged at 2000 rpm for 20 min. The supernatant was analyzed by LC-MS/MS. […]
The chemical stability of fexinidazole was checked by incubating the compound at 37°C in the medium alone at t = 0 and 120 minutes.
(§5) For the determination of phase I and phase II activities of hepatocytes, 7-ethoxycoumarin (7-ETC) 1 µM, and 7-hydroxycoumarin (7-HC) 30 µM were used as positive controls and incubated under the same conditions as fexinidazole. Aliquots of incubates were taken at 0, 1, 5, 10, 15, 20, 30, 60 and 120 minutes and processed as fexinidazole samples.
7.5.2. Metabolite Profile Study
For metabolite profiling, fexinidazole was incubated at a concentration of 10 µM with pooled human hepatocytes (1 million cells/mL) in a final incubation volume of 2 mL Leibovitz L-15 medium, at 37°C. Aliquots of the incubation samples were taken at t = 0, 30 and 120 minutes; the metabolism was stopped by the addition of an equal volume of cold acetonitrile and the samples centrifuged at 1100 rpm for 20 min. The supernatant was stored at -20°C until analysis. Control incubations were performed with the compound in the medium alone for 120 minutes.
7.6. Analysis of the Samples of Intrinsic Clearance Study
(§6) The analysis of the samples for intrinsic clearance determination was performed by an LC-MS/MS method, using the following conditions:
(§7) HPLC Equipment and Conditions
HPLC system 1100 binary pump (Agilent, Palo Alto, USA)
Autosampler 2777 (Waters)
(§8) Analytical column Guard Column SB-C8 4.6 x 12.5 mm, 5 µm (Zorbax)
(§9) Column temperature ambient
(§10) Mobile phase A 10 mM ammonium formate pH 4.0: acetonitrile (95:5, v:v)
(§11) Mobile phase B 10 mM ammonium formate pH 4.0: acetonitrile (5:95, v:v) […]
(§12) Gradient conditions Step Total time (min) flow (µL/min) %A % B […]

rat hepatocytes = experiment: as above; assay type: in vitro ADME; conditions: fexinidazole 10 µM
Description: as §1
A quality control analysis of fexinidazole was performed via 1H-NMR in DMSO and LC- […]
provided by the Swiss Tropical Institute (Basel, Switzerland).
as §2
Cryopreserved hepatocytes from the male CD1 mouse, lot CSI; male Sprague Dawley rat, lot LPL; male beagle dog, lot BWX; male cynomolgus monkey, lot EHH; and pooled human samples, lot MJI, were purchased from In Vitro Technologies Inc (Baltimore, Maryland, […]
5.4. In vitro Incubations
as §3
On the day of experiment, the cryopreserved hepatocytes were thawed following the detailed instructions provided by the supplier.
The number of viable cells was determined using a Trypan Blue exclusion method.
5.4.1. Intrinsic Clearance Study […]
µM with mouse, rat, dog, monkey and human hepatocytes (300000 cells/mL for the mouse and 1 million cells/mL for the other species) in a final incubation volume of 0.75 mL […]
as §4, with “Incubations” for “µM with pooled human hepatocytes (1 million cells/mL) in a final incubation volume of 1 mL Leibovitz L-15 medium, at 37°C. Incubations”
the medium alone at t = 0 and 120 minutes.
as §5, with “activity” for “activities”, “(7-EC)” for “(7-ETC)”, “0,” for “0, 1, 5,”, “10,” for “10, 15,”
5.4.2. Metabolite Profile Study
For metabolite profiling, fexinidazole was incubated at a concentration of 10 µM with mouse, rat, dog, monkey and human hepatocytes (300000 cells/mL for the mouse and 1 million cells/mL for the other species) in a final incubation volume of 2 mL Leibovitz L-15 […]
Aliquots of the incubation samples were taken at t = 0, 30 and 120 minutes; the metabolism was stopped by the addition of an equal volume of cold acetonitrile and the samples centrifuged at 1500 rpm for 20 min. The supernatant was stored at -20°C until analysis. Control incubations were performed with the compound in the medium alone […]
5.5. Analysis of Samples for Intrinsic Clearance Determination
as §6, §7
HPLC system Agilent 1100 binary pump (Agilent, Palo Alto, USA)
Autosampler CTC Pal (Alfatech, San Jose, USA)
as §8, §9, §10, §11, §12
MS Equipment and Conditions
Mass spectrometer API 4000 Triple Quadrupole (MDS-Sciex, Toronto, […]
Source Turbo Ion Spray (TIS)
Ion mode Positive for fexinidazole and 7-EC.
Negative for 7-HC, 7-HC sulphate and 7-HC glucuronide.

SMILES | % of total drug related material ([1]; 120 min) [%] | % of total drug related material (rat hepatocytes; 30 min) [%] | % of total drug related material (rat hepatocytes; 120 min) [%] | % of total drug related material ([1]; 30 min) [%] | % of total drug related material ([1]; t=0) [%] | % of total drug related material (rat hepatocytes; t=0) [%]
Cn1c([N+](=O)[O-])cnc1COc1ccc(S(C)(=O)=O)cc1 [Fexinidazole sulfone] | 1 | 10 | 32 |  |  | 
Cn1c([N+](=O)[O-])cnc1COc1ccc([S+](C)[O-])cc1 (stereo not drawn) [Fexinidazole sulfoxide] | 98 | 90 | 68 | 98 | 23 | 32
CSc1ccc(OCc2ncc([N+](=O)[O-])n2C)cc1 [Fexinidazole, 1-methyl-2-((p-(methylthio)phenoxy)methyl)-5-nitroimidazole] |  |  |  | 1 | 77 | 68
